Experimental data: patent US8742078B2, “Antibacterial 4,6-substituted 6′, 6″ and 1 modified aminoglycoside analogs” (Isis Pharmaceuticals, Inc., priority 2008, dated 2014)

Legend:
P. aeruginosa 27853 = experiment: MIC assay, P. aeruginosa 27853; assay type: cell-based; set-up: unit not given here; details: range: complete growth inhibition at higher, viable cells at lower concentration; 20-24 hours at 37° C.
Protocol: (§1) The MIC assays are carried out in 150 μL volume in duplicate in 96-well clear flat-bottom plates. The bacterial suspension from an overnight culture growth in appropriate medium is added to a solution of test compound in 2.5% DMSO in water. Final bacterial inoculum is approximately 10^2-10^3 CFU/well. The percentage growth of the bacteria in test wells relative to that observed for control wells containing no compound is determined by measuring absorbance at 595 nm (A595) after 20-24 hours at 37° C. The MIC is determined as a range of concentration where complete inhibition of growth is observed at the higher concentration and bacterial cells are viable at the lower concentration. Both ampicillin and tetracycline are used as antibiotic positive controls in each screening assay. Both ampicillin and tetracycline are used as antibiotic-positive controls in each screening assay for S. pyogenes, E. coli imp-, E. coli, S. aureus, E. faecalis, K. pneumoniae and P. vulgaris. Ciprofloxacin is used as an antibiotic positive control in each screening assay for P. aeruginosa.

P. aeruginosa 29248 = experiment: MIC assay, P. aeruginosa 29248; assay type: cell-based; set-up: unit not given here; details: range: complete growth inhibition at higher, viable cells at lower concentration; 20-24 hours at 37° C.
Protocol: as §1

Compound	MIC P aeruginosa 27853 (P. aeruginosa 27853)	MIC P aeruginosa 29248 (P. aeruginosa 29248)
6″-deoxy-6″-phenethylamino-N-1-(4-amino-2-S-hydroxybutyryl)kanamycin A [IBIS00561977]	10-20	5-10
NC[C@H]1O[C@H](O[C@H]2[C@H](O)[C@@H](O[C@H]3O[C@H](CO)[C@@H](O)[C@H](N)[C@H]3O)[C@H](N)C[C@@H]2N)[C@H](O)[C@@H](O)[C@@H]1O [IBIS00262400, Kanamycin A, reference compound]	1.25-2.5	2.5-5
NCC[C@H](O)C(=O)N[C@@H]1C[C@H](N)[C@@H](O[C@H]2O[C@H](CN)[C@@H](O)[C@H](O)[C@H]2O)[C@H](O)[C@H]1O[C@H]1O[C@H](CO)[C@@H](O)[C@H](N)[C@H]1O [IBIS00404962, Amikacin, reference compound]	1.25-2.5	<0.625
NCC[C@H](O)C(=O)N[C@@H]1C[C@H](N)[C@@H](O[C@H]2O[C@H](CNCCc3ccccc3)[C@@H](O)[C@H](O)[C@H]2O)[C@H](O)[C@H]1O[C@H]1O[C@H](CO)[C@@H](O)[C@H](N)[C@H]1O [IBIS00561960, 6′-N-Phenethylamino-N-1-(4-amino-2-S-hydroxybutyryl)kanamycin A]	2.5-5.0	5-10
CN(C)CC1OC(OC2C(N)CC(NC(=O)[C@@H](O)CCN)C(OC3OC(CO)C(O)C(N)C3O)C2O)C(O)C(O)C1O (stereo partly shown) [IBIS00561961, 6′-N,N-Dimethyl-N-1-(4-amino-2-S-hydroxybutyryl)kanamycin A]	10-20	>40
NCC[C@H](O)C(=O)N[C@@H]1C[C@H](N)[C@@H](O[C@H]2O[C@H](CNCCCc3ccccc3)[C@@H](O)[C@H](O)[C@H]2O)[C@H](O)[C@H]1O[C@H]1O[C@H](CO)[C@@H](O)[C@H](N)[C@H]1O [IBIS00561962, 6′-N-Phenpropylamino-N-1-(4-amino-2-S-hydroxybutyryl)kanamycin A]	2.5-5.0	2.5-5.0
CC(C)CNCC1OC(OC2C(N)CC(NC(=O)[C@@H](O)CCN)C(OC3OC(CO)C(O)C(N)C3O)C2O)C(O)C(O)C1O (stereo partly shown) [IBIS00561963, 6′-N-Isobutyl-N-1-(4-amino-2-S-hydroxybutyryl)kanamycin A]	10-20	>40
CNC[C@H]1O[C@H](O[C@@H]2[C@@H](O)[C@H](O[C@H]3O[C@H](CN)[C@@H](O)[C@H](O)[C@H]3O)[C@@H](N)C[C@H]2NC(=O)[C@@H](O)CCN)[C@H](O)[C@@H](N)[C@@H]1O [IBIS00561974, 6″-deoxy-6″-methylamino-N-1-(4-amino-2-S-hydroxybutyryl)kanamycin A]	2.5-5.0	0.625-1.25
CC(C)NC[C@H]1O[C@H](O[C@@H]2[C@@H](O)[C@H](O[C@H]3O[C@H](CN)[C@@H](O)[C@H](O)[C@H]3O)[C@@H](N)C[C@H]2NC(=O)[C@@H](O)CCN)[C@H](O)[C@@H](N)[C@@H]1O [IBIS00561975, 6″-deoxy-6″-isopropylamino-N-1-(4-amino-2-S-hydroxybutyryl)kanamycin A]	10-20	10-20
NCC[C@H](O)C(=O)NC1CC(N)C(OC2OC(CN)C(O)C(O)C2O)C(O)C1OC1OC(CNC2CCCCC2)C(O)C(N)C1O (stereo partly shown) [IBIS00561976, 6″-deoxy-6″-cyclohexylamino-N-1-(4-amino-2-S-hydroxybutyryl)kanamycin A]	>40	5-10
[N-]=[N+]=NC[C@H]1O[C@H](O[C@@H]2[C@@H](O)[C@H](O[C@H]3O[C@H](CN)[C@@H](O)[C@H](O)[C@H]3O)[C@@H](N)C[C@H]2NC(=O)[C@@H](O)CCN)[C@H](O)[C@@H](N)[C@@H]1O [IBIS00561980, 6″-deoxy-6″-azido-N-1-(4-amino-2-S-hydroxybutyryl)kanamycin A]	2.5-5.0	0.625-1.25
CCCNC[C@H]1O[C@H](O[C@@H]2[C@@H](O)[C@H](O[C@H]3O[C@H](CN)[C@@H](O)[C@H](O)[C@H]3O)[C@@H](N)C[C@H]2NC(=O)[C@@H](O)CCN)[C@H](O)[C@@H](N)[C@@H]1O [IBIS00561982, 6″-deoxy-6″-propylamino-N-1-(4-amino-2-S-hydroxybutyryl)kanamycin A]	5.0-10.0	2.5-5.0
CN(C)CCNCC1OC(OC2C(NC(=O)C(O)CCN)CC(N)C(OC3OC(CN)C(O)C(O)C3O)C2O)C(O)C(N)C1O (stereo not shown) [IBIS00561983, 6″-deoxy-6″-dimethylaminoethylamino-N-1-(4-amino-2-S-hydroxybutyryl)kanamycin A]	1.25-2.5	1.25-2.5
NCC[C@H](O)C(=O)N[C@@H]1C[C@H](N)[C@@H](O[C@H]2O[C@H](CN)[C@@H](O)[C@H](O)[C@H]2O)[C@H](O)[C@H]1O[C@H]1O[C@H](CNCCNCc2ccccc2)[C@@H](O)[C@H](N)[C@H]1O [IBIS00561984, 6″-deoxy-6″-benzylaminoethylamino-N-1-(4-amino-2-S-hydroxybutyryl)kanamycin A]	5.0-10.0	5.0-10.0
